Data from article PMC6718736, “Validation of in vitro methods for human cytochrome P450 enzyme induction: Outcome of a multi-laboratory study” (Toxicology in Vitro, 2019).
Like-named read-outs stand apart in the source and are kept apart here.

What was measured:
[1] = system: CYP1A2; assay: CYP1A2 enzyme induction assay in cryopreserved HepaRG cells (phenacetin probe, LC/MS); type: in vitro ADME, human; settings: for Assigned classification CYP1A2: HepaRG; for Assigned classification CYP1A2: key: 1=Positive=inducer; 0=Negative=non-inducer
[2] = system: CYP2B6; assay: CYP2B6 enzyme induction assay in cryopreserved HepaRG cells (bupropion probe, LC/MS); type: in vitro ADME, human; settings: HepaRG; note: key: 1=Positive=inducer; 0=Negative=non-inducer
[3] = system: CYP3A4; assay: CYP3A4 enzyme induction assay in cryopreserved HepaRG cells (midazolam probe, LC/MS); type: in vitro ADME, human; settings: for Assigned classification CYP3A4: HepaRG; for Assigned classification CYP3A4: key: 1=Positive=inducer; 0=Negative=non-inducer
[4] = system: CYP1A2; assay: CYP1A2 enzyme induction assay in cryopreserved primary human hepatocytes (PHH); type: in vitro ADME; settings: for Assigned classification CYP1A2: PHH;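 for Assigned classification CYP1A2: code 1 means positive inducer and 0 means non-inducer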
[5] = system: CYP2B6; assay: CYP2B6 enzyme induction assay in cryopreserved primary human hepatocytes (PHH); type: in vitro ADME; settings: PHH;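 note: code 1 means positive inducer and 0 means non-inducer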
[6] = system: CYP1A2; settings: CYP1A2, human; ref Table 1; cited from earlier work
[7] = cited from earlier work
[8] = system: CYP3A4; settings: CYP3A4, human in vivo reference classification (Table 11); cited from earlier work
[9] = system: CYP3A4; assay: CYP3A4 enzyme induction assay in cryopreserved primary human hepatocytes (PHH); settings: for Assigned classification CYP3A4: PHH
[10] = Solubility by visual inspection (DMSO stock solution and assay medium); type: physicochemical; settings: assay medium
Method: The SOPs relied on visual inspection for solubility observation. […] The absence of precipitation in the medium was checked pre- and post-incubation (24 hours) by centrifugation of the sample and observation of any precipitation (pellet residue).

[11] = Solubility by nephelometry (EURL ECVAM); type: physicochemical; settings: ECVAM nephelometry, ^2 = solubility limit
Excerpt: In addition to the visual inspection performed by the validation laboratories as described in the SOP, EURL ECVAM introduced nephelometry for systematic solubility determination of the 13 validation set chemicals. Nephelometry uses a laser beam and the principle of Tyndall effect light scatter to detect turbidity due to insolubility. The nephelometer method used formazin as reference item (1, 5, 10 and 20 nephelometric turbidity units (NTU)) to calculate the relative turbidity (RTU) of the validation set of chemicals. To the naked eye, 20 NTU is perceptible, while the nephelometer was sensitive to 5 NTU, with 1 NTU equivalent to background (solvent/medium blank).

[12] = human in vivo plasma concentration, normal dose
[13] = human in vivo, normal dose (Table 10)

## COCCc1ccc(OCC(O)CNC(C)C)cc1 (stereo not shown) [Metoprolol]
[1]; CYP1A2, HepaRG cells, Cmax/F2 >0.5 criterion
  Prediction in vivo inducer: No
[1]; CYP1A2, HepaRG cells, positive in one batch in each of the three laboratories
  Induction in vitro: No
[1]; Lab 1, batch 20
  Assigned classification CYP1A2: 0
[1]; Lab 1, batch 35
  Assigned classification CYP1A2: 0
[1]; Lab 1, batch 36
  Assigned classification CYP1A2: 0
[1]; Lab 2, batch 20
  Assigned classification CYP1A2: 0
[1]; Lab 2, batch 35
  Assigned classification CYP1A2: 1
[1]; Lab 2, batch 36
  Assigned classification CYP1A2: 0
[1]; Lab 3, batch 20
  Assigned classification CYP1A2: 0
[1]; Lab 3, batch 35
  Assigned classification CYP1A2: 0
[1]; Lab 3, batch 36
  Assigned classification CYP1A2: 0
[2]; Lab 1, batch 20
  Assigned classification CYP2B6: 0
[2]; Lab 1, batch 35
  Assigned classification CYP2B6: 0
[2]; Lab 1, batch 36
  Assigned classification CYP2B6: 0
[2]; Lab 2, batch 20
  Assigned classification CYP2B6: 0
[2]; Lab 2, batch 35
  Assigned classification CYP2B6: 0
[2]; Lab 2, batch 36
  Assigned classification CYP2B6: 0
[2]; Lab 3, batch 20
  Assigned classification CYP2B6: 0
[2]; Lab 3, batch 35
  Assigned classification CYP2B6: 0
[2]; Lab 3, batch 36
  Assigned classification CYP2B6: 0
[3]; CYP3A4, HepaRG cells
  Induction in vitro: No
  Prediction in vivo inducer: No
[3]; Lab 1, batch 20
  Assigned classification CYP3A4: 0
[3]; Lab 1, batch 35
  Assigned classification CYP3A4: 0
[3]; Lab 1, batch 36
  Assigned classification CYP3A4: 0
[3]; Lab 2, batch 20
  Assigned classification CYP3A4: 0
[3]; Lab 2, batch 35
  Assigned classification CYP3A4: 0
[3]; Lab 2, batch 36
  Assigned classification CYP3A4: 0
[3]; Lab 3, batch 20
  Assigned classification CYP3A4: 0
[3]; Lab 3, batch 35
  Assigned classification CYP3A4: 0
[3]; Lab 3, batch 36
  Assigned classification CYP3A4: 0
[4]; CYP1A2, PHH, Cmax/F2 >0.5 criterion
  Prediction in vivo inducer: No
[4]; CYP1A2, PHH, positive in one donor in each of the three laboratories
  Induction in vitro: No
[4]; Lab 1, batch 0 6 A
  Assigned classification CYP1A2: 0
[4]; Lab 1, batch 4 0 8
  Assigned classification CYP1A2: 1
[4]; Lab 1, batch 8 0 8
  Assigned classification CYP1A2: 1
[4]; Lab 2, batch 0 6 A
  Assigned classification CYP1A2: 0
[4]; Lab 2, batch 4 0 8
  Assigned classification CYP1A2: 0
[4]; Lab 2, batch 8 0 8
  Assigned classification CYP1A2: 0
[4]; Lab 3, batch 0 6 A
  Assigned classification CYP1A2: 1
[4]; Lab 3, batch 4 0 8
  Assigned classification CYP1A2: 0
[4]; Lab 3, batch 8 0 8
  Assigned classification CYP1A2: 0
[5]; Lab 1, batch 0 6 A
  Assigned classification CYP2B6: 0
[5]; Lab 1, batch 4 0 8
  Assigned classification CYP2B6: 0
[5]; Lab 1, batch 8 0 8
  Assigned classification CYP2B6: 0
[5]; Lab 2, batch 0 6 A
  Assigned classification CYP2B6: 0
[5]; Lab 2, batch 4 0 8
  Assigned classification CYP2B6: 0
[5]; Lab 2, batch 8 0 8
  Assigned classification CYP2B6: 0
[5]; Lab 3, batch 0 6 A
  Assigned classification CYP2B6: 1
[5]; Lab 3, batch 4 0 8
  Assigned classification CYP2B6: 0
[5]; Lab 3, batch 8 0 8
  Assigned classification CYP2B6: 0
[6]
  Induction in vivo: No
[7]; [12]
  Cmax: 140 to 380 nM
[7]; [13]
  Cmax: 140 to 380 nM
[8]
  Induction in vivo: No
[9]; CYP3A4, PHH
  Induction in vitro: No
  Prediction in vivo inducer: No
[9]; CYP3A4, PHH, Cmax/F2 >0.5 criterion
  Prediction in vivo inducer: predicted to be a non-inducer in vivo
[9]; Lab 1, batch 0 6 A
  Assigned classification CYP3A4: 0
[9]; Lab 1, batch 4 0 8
  Assigned classification CYP3A4: 0
[9]; Lab 1, batch 8 0 8
  Assigned classification CYP3A4: 0
[9]; Lab 2, batch 0 6 A
  Assigned classification CYP3A4: 1
[9]; Lab 2, batch 4 0 8
  Assigned classification CYP3A4: 0
[9]; Lab 2, batch 8 0 8
  Assigned classification CYP3A4: 0
[9]; Lab 3, batch 0 6 A
  Assigned classification CYP3A4: 1
[9]; Lab 3, batch 4 0 8
  Assigned classification CYP3A4: 0
[9]; Lab 3, batch 8 0 8
  Assigned classification CYP3A4: 0

## CC1(C)S[C@@H]2[C@H](NC(=O)Cc3ccccc3)C(=O)N2[C@H]1C(=O)O [Penicillin G sodium]
[10]; Lab 1, visual observation
  HepaRG medium stability: 40 µg/mL
[10]; Lab 2, visual observation
  HepaRG medium stability: 40 µg/mL
[10]; Lab 3, visual observation
  HepaRG medium stability: 40 µg/mL
[10]; Lab 4, visual observation
  PHH medium stability: 40 µg/mL
[10]; Lab 5, visual observation
  PHH medium stability: 40 µg/mL
[10]; Lab 6, visual observation
  PHH medium stability: 20 µg/mL
[11]; HepaRG medium
  HepaRG medium stability: 40 µg/mL
[11]; PHH medium
  PHH medium stability: 40 µg/mL
[7]; [12]
  Cmax: 36000 nM
[7]; [13]
  Cmax: 36000 nM

## C[C@@H]1CC[C@H]2[C@@H](C)C(=O)O[C@@H]3O[C@@]4(C)CC[C@@H]1[C@]32OO4 [Artemisinin]
[7]; [12]
  Cmax: 1000 to 2000 nM
[7]; [13]
  Cmax: 1000 to 2000 nM
